Three compounds from PMC10672842, “Anti-Trypanosoma cruzi Activity, Mutagenicity, Hepatocytotoxicity and Nitroreductase Enzyme Evaluation of 3-Nitrotriazole, 2-Nitroimidazole and Triazole Derivatives” (Molecules, 2023) can be followed below.

Data set [1] deals with T. cruzi nitroreductase enzyme (TcNTR). Kind of data set: Kinetic assay with Trypanosoma cruzi nitroreductase enzyme (NADH oxidation). As to conditions: for Kobs Deriv./Kobs BZN 25 µM: 25 µM derivative; for Kobs Deriv./Kobs BZN 25 µM / Kobs Deriv./Kobs BZN 50 µM: ratio of mean Kobs to BZN; for Kobs Deriv./Kobs BZN 50 µM: 50 µM derivative. In kind it is biochemical. How it is done:
To determine a potential mechanism of action, nitroazole derivatives 5, 6, 8 and 9 were evaluated as substrates of the T. cruzi nitroreductase enzyme (TcNTR) and compared to BZN, the reference prodrug (Table 2). The enzymatic activity was measured by monitoring the oxidation of NADH, the first substrate of the enzyme, via spectrophotometric assays. […] At a concentration of 25 µM, derivatives 5 and 8 were metabolized at rates 2.3 and 2.6 times higher than that of BZN, respectively. At 50 µM, the compounds presented metabolism rates 1.6 and 3.0 times higher than that of BZN, respectively.
The protocols for expressing, purifying and conducting kinetic analysis with the recombinant TcNTR enzyme were adapted from the methods originally developed by Shane Wilkinson, with certain modifications.
For the kinetics assays, it was prepared a 200 μL solution which included 50 mM Tris-Base at pH 7.5, with a constant concentration of both NADH (50 μM) and the substances 5, 6, 8, 9 or BZN. Specifically, two distinct fixed concentrations (25 and 50 μM) of the substances 5, 6, 8, 9 or BZN were tested. These prepared mixtures were then incubated for 5 min at room temperature. Subsequently, the reaction was initiated by adding NTR to achieve a final concentration of 10 μg/mL. The reaction rates were monitored using a Hitachi U-2900 spectrophotometer, measuring the consumption of the primary substrate, NADH (λ = 340 nm; ε = 6.220 M^−1 cm^−1), over a 2-min interval. The resulting data curves were analyzed through linear regression using OriginPro 2016 software. To evaluate the reaction rate (Kobs) obtained from the 25 and 50 μM concentrations of each substrate, comparisons were made with the reference values for BZN. Measurement errors were calculated using the formula: Error = Z × σ/√n, where ‘Z’ denotes the critical value, ‘σ’ represents the standard deviation and ‘n’ is the number of test measurements, which were performed at least in triplicate.

Data set [2] can be described thus: In vitro cytotoxicity of L929 cells (AlamarBlue). It counts as cell-based, mice. The conditions noted are these: mouse, four days. As for the experimental part: For this bioassay, 4000 mammalian cells in 200 µL of RPMI-1640 medium (pH 7.2–7.4) (Gibco BRL) plus 10% fetal bovine serum and 2 mM glutamine were added to each well of a 96-well microtiter plate, which was incubated for three days at 37 °C. […] After this period, 20 µL of AlamarBlue^TM was added to each well, and the plate was incubated for another 4–6 h. Then, the absorbance was measured at 570 nm. Controls with cells not treated and treated with benznidazole were performed in parallel, and triplicates were performed on the same plate. The results are expressed as the percent difference in the reduction between treated (CT) and untreated cells (UT) using the following equation:(1) 117.216Abs570 TC−80.586(Abs600 TC)/117.216Abs570 UT−80.586(Abs600 UT) × 100
(In general: Resazurin is reduced to fluorescent resorufin, in cell work by metabolically active cells.)

Data set [3] is described as follows: in vitro. In kind it is cell-based. The conditions noted are these: human. As for the experimental part: The Lactate Desidrogenase (LDH) Cytotoxicity Detection Kit^PLUS and the Cell Proliferation Reagent WST-1 assays were performed according to the manufacturer’s protocols. The human hepatocellular carcinoma cell line HepG2 was cultured in T25/175 cm^2 flasks with Dulbecco’s modified Eagle’s medium (DMEM, Gibco BRL) supplemented with 10% fetal bovine serum, 3.7 g/L sodium bicarbonate and 100 µg/mL penicillin–streptomycin under standard conditions (37 ± 1 °C, 95% relative humidity and 5% CO2). Cells were split using trypsin-EDTA (0.05%) with phenol red solution (Gibco BRL) and seeded in a 96-well flat-bottomed plate at a density of 1 × 10^4 cells/well. After overnight incubation, the cells were washed with 1X PBS, and the medium was replaced with different compound dilutions (0–5000 µM) in fresh medium (100 µL) followed by 24 h of incubation. DMSO 1% was used as the negative control, and Triton X-100 4% was used as the positive control. For the LDH assay, after treatment, 50 µL of supernatant from each well was transferred to a 96-well flat-bottomed plate, and 50 µL of freshly prepared reaction mixture was added to each well. After 10 min of incubation in the dark at room temperature, 25 µL of stop solution was added to each well, and the absorbance was measured at 492 nm on a microplate reader (Polaris, Celer, MG, Brazil). For the WST-1 assay, after exposure, the supernatant was replaced by 100 µL of WST-1 2% in fresh medium and incubated for 3 h in the dark under standard conditions. The absorbance was measured at 440 nm. […] For cytotoxicity assays, significant differences between the groups were analyzed by one-way ANOVA and Tukey’s post hoc tests (p < 0.01).

The test system of data set [4] is T. cruzi (Tulahuen strain). The data set is described as follows: In vitro anti-T. cruzi evaluation in an intracellular model (trypomastigote and amastigote forms, L929 host cells, β-galactosidase readout). It counts as cell-based, Trypanosoma cruzi. The conditions noted are these: for IC50: Trypanosoma cruzi, TULAHUEN, L929, 96 h, read-out: IC50 T. cruzi; for SI: selectivity index, L929 cells vs T. cruzi. As for the experimental part:
Derivatives 5–10 were evaluated in vitro against T. cruzi in an intracellular model on the trypomastigote and amastigote forms of the parasite of the Tulahuen strain [20]. This model is interesting because it mimics the life cycle of the parasite, as both clinically relevant forms are present in the environment. The mammalian host cells used were fibroblasts from L929 mice.
This assay was performed as previously described by Buckner et al. (1996) using T. cruzi (Tulahuen strain), which expresses the β-galactosidase gene of Escherichia coli. Infectious trypomastigote forms were obtained by culturing fibroblast monolayers of L929 mice in RPMI-1640 medium (pH 7.2–7.4) without phenol red (Gibco BRL), containing 10% fetal bovine serum and 2 mM glutamine. For the bioassay, 4000 L929 cells in 80 µL of supplemented medium were added to each well of a 96-well microtiter plate. After overnight incubation, 40,000 trypomastigotes in 20 µL were added to the cells and incubated for 2 h. […] The medium was then replaced with compound solutions at 1.0 µg/mL in fresh medium (200 µL), and the plate was incubated for 96 h at 37 °C. After this period, 50 µL of chlorophenol D-galactopyranoside red (500 µM) in 0.5% Nonidet P40 was added to each well, and the plate was incubated for 18 h at 37 °C. After this, the absorbance was measured at 570 nm. Controls with uninfected cells and infected cells treated with benznidazole were performed in parallel. The results are expressed as the percentage of T. cruzi growth inhibition in cells tested with compost compared to infected and untreated cells. The tests were performed in triplicate.

Where [5] appears, read: Tulahuen strain, intracellular trypomastigote and amastigote forms in L929 fibroblasts, 96 h.

Like-named read-outs stand apart in the source and are kept apart here. A value given as a limit tells only on which side of the number the result lay.

For orientation: CC50 means the concentration that lowers cell viability or growth by half. One may read the IC50 as the point on the concentration scale where inhibition reaches its midpoint.

With `O=C(Cn1ccnc1[N+](=O)[O-])NCc1ccccc1` [BZN, benznidazole, reference compound], the Kobs in data set [1] (25 µM Derivative + 50 µM NADH) is reported as 0.36 µmol of oxidized NADH/min/mg TcNTR. The Kobs in data set [1] (50 µM Derivative + 50 µM NADH) is given as 0.36 µmol of oxidized NADH/min/mg TcNTR. For the same compound, the half-maximal cytotoxic concentration (CC50) at 4 days in data set [2] is 2.11 ± 0.27 mM. In data set [3], this compound displayed a CC50 at 24 h greater than 500 µM, a CC50 at 48 h greater than 500 µM and a CC50 at 72 h greater than 500 µM. Also, in data set [4], the IC50 came out at 1500 ± 400 nM and the SI turned out to be 1409.

As to `O=[N+]([O-])c1ncn(CC(O)c2ccc(F)cc2F)n1` (centres unmarked) [Compound 8, 1-(2,4-Difluorophenyl)-2-(3-nitro-1H-1,2,4-triazol-1-yl)ethanol], the “consumption rate by TcNTR, times higher than that of 9” value in data set [1] (25 µM) was found to be 3.4. In data set [1], the “Kobs Deriv./Kobs BZN 25 µM” value is 2.6 and the “Kobs Deriv./Kobs BZN 50 µM” value was 3.0. The “consumption rate by TcNTR, times higher than that of 5” value in data set [1] (50 µM) is 1.8. This compound also registered a CC50 at 4 days in data set [2] of 1.2 ± 1e-05 mM. In data set [3], this compound had a CC50 at 24 h greater than 500 µM and a CC50 at 48 h greater than 500 µM. The IC50 in data set [4] (setting [5]) is 390 ± 10 nM. The “times more potent against T. cruzi than 9” value in data set [4] (ratio of IC50 T. cruzi to 2-nitroimidazole 9) was “approximately 8”. In addition, in data set [4] (ratio of IC50 T. cruzi to BZN), the “fold more potent against T. cruzi than BZN” value is on record as roughly 4. Besides, in data set [4] (ratio of IC50 T. cruzi to carbonyl counterpart 5), the “times more potent against T. cruzi than 5” value is “more than 4”. Also, the “times more potent against T. cruzi than 10” value in data set [4] (ratio of IC50 T. cruzi to triazole 10) is “more than 300”. The “fold more selective than BZN” value in data set [4] (ratio of selectivity index to BZN) is 2. The compound also returned an SI in data set [4] of 3077.

Turning to `O=[N+]([O-])c1nccn1CC(O)c1ccc(F)cc1F` (centres unmarked) [Compound 9, 1-(2,4-Difluorophenyl)-2-(2-nitro-1H-imidazol-1-yl)ethanol], in data set [1], the “Kobs Deriv./Kobs BZN 25 µM” value was determined as 0.8 and the “Kobs Deriv./Kobs BZN 50 µM” value is given as 1.2. Also, the “consumption rate by TcNTR, times higher than that of 6” value in data set [1] (50 µM) worked out at 4.9. In addition, the cytotoxic concentration (CC50) at 4 days in data set [2] is greater than 0.4 mM. In data set [3], the CC50 at 24 h is greater than 500 µM, the CC50 at 48 h was greater than 500 µM and the CC50 at 72 h was greater than 500 µM. Besides, in data set [4] (setting [5]), the half-maximal inhibitory concentration (IC50) was found to be 3050 ± 70 nM. For the same compound, the “times more potent against T. cruzi than 6” value in data set [4] (ratio of IC50 T. cruzi to 2-nitroimidazole ketone 6) is listed as “approximately 30”. In data set [4], this compound showed an SI greater than 131.
